These results are taken from patent US11124497B1, “Inhibitors of cysteine proteases and methods of use thereof” (priority 2020, dated 2021).

Where only a bound is given, the exact number is not on record here.

The first assay relates to HCoV 229E. As to the kind of experiment: HCoV 229E cytopathic effect (CPE) assay. In kind it is cell-based, Human Coronavirus (HCov) 229E. Particulars: CellTiter Glo, read-out: 229 ECPE EC50. How it is done:
Compounds were assayed using standard methods against multiple coronaviral strains, including HCoV 229E and OC43 strains. The antiviral activity of compounds was calculated based on the protection of the virus-induced CPE at each concentration normalized by the virus control.
Cytopathic effect (CPE) was measured by CellTiter Glo following the manufacturer's manual. The antiviral activity of compounds was calculated based on the protection of the virus-induced CPE at each concentration normalized by the virus control.
In the case of `COc1cccc2[nH]c(C(=O)N[C@@H](CC(C)C)C(=O)N[C@@H](C[C@@H]3CCNC3=O)C(O)C#N)cc12` (single isomer, unassigned) [135 (Isomer 2)], the EC50 – broadly, the concentration that produces a half-maximal response – is under 22 µM.

`CC(C)C[C@H](NC(=O)c1nc2cccc(Cl)c2[nH]1)C(=O)N[C@H](C#N)C[C@@H]1CCNC1=O` [Compound 127]: the 50% effective concentration (EC50) lay in the range of 2 to 10 µM.

Take `CC(C)C[C@H](NC(=O)c1nc2cccc(Cl)c2[nH]1)C(=O)N[C@H](C#N)C[C@@H]1CCNC1=O` [Compound 133]: the EC50 is under 22 µM.

The assay is the same for the next values; noted with them: unidentified human coronavirus, CellTiter Glo, read-out: 229 ECPE EC50.
Turning to `COc1cccc2[nH]c(C(=O)N[C@@H](CC(C)C)C(=O)N[C@@H](C[C@@H]3CCNC3=O)C(O)C#N)cc12` (single isomer, unassigned) [134 (Isomer 1)], the EC50 was under 22 µM.

As to `COc1cccc2[nH]c(C(=O)N[C@@H](CC(C)C)C(=O)N[C@@H](C[C@@H]3CCNC3=O)C(C#N)NC(C)(C)C)cc12` (single isomer, unassigned) [323 (Isomer 1)], the EC50 was under 22 µM.

With `COc1cccc2[nH]c(C(=O)N3CC4(CCCCC4)CC3C(=O)N[C@H](C#N)C[C@@H]3CCNC3=O)cc12` (single isomer, unassigned) [389A (Isomer 1)], the EC50 was under 22 µM.

For `COc1cccc2[nH]c(C(=O)N[C@@H](CC(C)C)C(=O)N[C@@H](C[C@@H]3CCNC3=O)C(C#N)NCc3ccccc3)cc12` (single isomer, unassigned) [507 (Isomer 1.1)], the half-maximal effective concentration (EC50) is under 22 µM.

For the compound `CCNC(C#N)[C@H](C[C@@H]1CCNC1=O)NC(=O)[C@H](CC(C)C)NC(=O)c1cc2c(OC)cccc2[nH]1` (single isomer, unassigned) [511 (Isomer 1)], the half-maximal effective concentration (EC50) was under 22 µM.

In the case of `COc1cccc2[nH]c(C(=O)N3CC4(CCCCC4)CC3C(=O)N[C@H](C#N)C[C@@H]3CCCNC3=O)cc12` (single isomer, unassigned) [681 (Isomer 1)], the half-maximal effective concentration (EC50) is under 22 µM.

With `N#C[C@H](C[C@@H]1CCCNC1=O)NC(=O)C1CC2(CCC2)CN1C(=O)c1cc2cccc(Cl)c2[nH]1` (single isomer, unassigned) [729 (Isomer 1)], the EC50 was under 22 µM.

Consider `CC(C)C[C@H](NC(=O)c1nc2ccccc2[nH]1)C(=O)N[C@H](C#N)C[C@@H]1CCNC1=O` [Compound 103, N-[(1S)-1-[[(1S)-1-cyano-2-[(3S)-2-oxopyrrolidin-3-yl]ethyl]carbamoyl]-3-methyl-butyl]-1H-benzimidazole-2-carboxamide], for which the EC50 was under 22 µM.

Turning to `CC(C)C[C@H](NC(=O)c1nc2ncccc2[nH]1)C(=O)N[C@H](C#N)C[C@@H]1CCNC1=O` [Compound 131, N-[(1S)-1-[[(1S)-1-cyano-2-[(3S)-2-oxopyrrolidin-3-yl]ethyl]carbamoyl]-3-methyl-butyl]-1H-imidazo[4,5-b]pyridine-2-carboxamide], the EC50 lay within 2 to 10 µM.

Take `COc1cccc2[nH]c(C(=O)NC(CC(C)C)C(=O)NC(CC3CCNC3=O)C(O)C#N)cc12` (stereo not drawn) [Compound 134]: the half-maximal effective concentration (EC50) is under 22 µM.

As to `COc1cccc2[nH]c(C(=O)N[C@@H](CC(C)C)C(=O)N[C@H](/C=C/S(C)(=O)=O)C[C@@H]3CCNC3=O)cc12` [Compound 136, 4-methoxy-N-[(1S)-3-methyl-1-[[(E,1S)-3-methylsulfonyl-1-[[(3S)-2-oxopyrrolidin-3-yl]methyl]allyl]carbamoyl]butyl]-1H-indole-2-carboxamide], the EC50 is over 30 µM.

As for `COc1cccc2[nH]c(C(=O)N3C[C@H](c4ccccc4)C[C@H]3C(=O)N[C@H](C#N)C[C@@H]3CCNC3=O)cc12` [Compound 171], the concentration giving a half-maximal response (EC50) was under 22 µM.

As to `COc1cccc2[nH]c(C(=O)N[C@@H](CC3CCCCC3)C(=O)N[C@H](C#N)C[C@@H]3CCNC3=O)cc12` [Compound 185, N-[(1S)-2-[[(1S)-1-cyano-2-[(3S)-2-oxopyrrolidin-3-yl]ethyl]amino]-1-(cyclohexylmethyl)-2-oxo-ethyl]-4-methoxy-1H-indole-2-carboxamide], the EC50 is under 22 µM.

On to `COc1cccc2[nH]c(C(=O)N3C[C@H]4C([C@H]3C(=O)N[C@H](C#N)C[C@@H]3CCNC3=O)C4(C)C)cc12` (stereo partly drawn) [Compound 197, (2S,5S)—N-[(1S)-1-cyano-2-[(3S)-2-oxopyrrolidin-3-yl]ethyl]-3-(4-methoxy-1H-indole-2-carbonyl)-6,6-dimethyl-3-azabicyclo[3.1.0]hexane-2-carboxamide], for which the EC50 is under 22 µM.

As to `COc1cccc2[nH]c(C(=O)N[C@@H](CC3CC3)C(=O)N[C@H](C#N)C[C@@H]3CCNC3=O)cc12` [Compound 205, N—((S)-1-(((S)-1-cyano-2-((S)-2-oxopyrrolidin-3-yl)ethyl)amino)-3-cyclopropyl-1-oxopropan-2-yl)-4-methoxy-1H-indole-2-carboxamide], the concentration giving a half-maximal response (EC50) was under 22 µM.

Regarding `COc1cccc2[nH]c(C(=O)N[C@@H](CC(C)C)C(=O)N[C@@H](C[C@@H]3CCNC3=O)C(C#N)N[C@@H](C)c3ccccc3)cc12` (stereo partly drawn) [Compound 329], the 50% effective concentration (EC50) is under 22 µM.

As to `COc1cccc2[nH]c(C(=O)N3C[C@H](c4ccccc4)CC3C(=O)N[C@H](C=O)C[C@@H]3CCNC3=O)cc12` (stereo partly drawn) [Compound 344A], the EC50 is under 22 µM.

In the case of `COc1cccc2[nH]c(C(=O)N[C@@H](CC(C)C)C(=O)N[C@@H](C[C@@H]3CCNC3=O)C(N)C#N)cc12` (stereo partly drawn) [Compound 344C, N-[(1S)-1-[[(1S)-2-amino-2-cyano-1-[[(3S)-2-oxopyrrolidin-3-yl]methyl]ethyl]carbamoyl]-3-methyl-butyl]-4-methoxy-1H-indole-2-carboxamide], the concentration for a half-maximal effect (EC50) is under 22 µM.

In the case of `COc1cccc2[nH]c(C(=O)N3C[C@H](c4ccccc4)C[C@H]3C(=O)N[C@@H](C[C@@H]3CCNC3=O)C(O)C#N)cc12` (stereo partly drawn) [Compound 345], the EC50 is under 22 µM.

In the case of `CC(C)C[C@H](NC(=O)c1cc2c(OC(F)(F)F)cccc2[nH]1)C(=O)N[C@H](C#N)C[C@@H]1CCNC1=O` [Compound 361], the 50% effective concentration (EC50) is under 22 µM.

Turning to `CC(C)C[C@H](NC(=O)c1nc2c(OC(F)(F)F)cccc2[nH]1)C(=O)N[C@H](C#N)C[C@@H]1CCNC1=O` [Compound 363], the concentration giving a half-maximal response (EC50) is under 22 µM.

For the compound `N#C[C@H](C[C@@H]1CCNC1=O)NC(=O)[C@H](CC1CC1)NC(=O)c1cc2c(C3CC3)cccc2[nH]1` [Compound 375A], the EC50 was under 22 µM.

Consider `CCOc1cccc2[nH]c(C(=O)N[C@@H](CC(C)C)C(=O)N[C@H](C#N)C[C@@H]3CCNC3=O)cc12` [Compound 377], for which the concentration for a half-maximal effect (EC50) was under 22 µM.

On to `COc1cccc2[nH]c(C(=O)N3C[C@@H]4CCC[C@@H]4[C@H]3C(=O)N[C@H](C#N)C[C@@H]3CCNC3=O)cc12` [Compound 393], for which the EC50 is under 22 µM.

On to `COc1cccc2[nH]c(C(=O)N3CC4(CC4)C[C@H]3C(=O)N[C@H](C#N)C[C@@H]3CCNC3=O)cc12` [Compound 397], for which the EC50 was under 22 µM.

Turning to `COc1cccc2[nH]c(C(=O)N3CC4(CCCC4)C[C@H]3C(=O)N[C@H](C#N)C[C@@H]3CCNC3=O)cc12` [Compound 401, (S)—N—((S)-1-cyano-2-((S)-2-oxopyrrolidin-3-yl)ethyl)-2-(4-methoxy-1H-indole-2-carbonyl)-2-azaspiro[4.4]nonane-3-carboxamide], the EC50 is under 22 µM.

Regarding `COc1cccc2[nH]c(C(=O)N[C@@H](CC(C)(C)C)C(=O)N[C@H](C#N)C[C@@H]3CCNC3=O)cc12` [Compound 405, N-[(1S)-1-[[(1S)-1-cyano-2-[(3S)-2-oxopyrrolidin-3-yl]ethyl]carbamoyl]-3,3-dimethyl-butyl]-4-methoxy-1H-indole-2-carboxamide], the half-maximal effective concentration (EC50) is under 22 µM.

Consider `COc1cccc2[nH]c(C(=O)N[C@@H](CC(C)C)C(=O)NC(C#N)c3cccnc3)cc12` (stereo partly drawn) [Compound 433], for which the concentration for a half-maximal effect (EC50) lay in the range of 2 to 10 µM.

As to `COc1cccc2[nH]c(C(=O)N[C@@H](CC3CC3)C(=O)N[C@H](C#N)C[C@@H]3CCCNC3=O)cc12` [Compound 491, N-[(1S)-2-[[(1S)-1-cyano-2-[(3S)-2-oxo-3-piperidyl]ethyl]amino]-1-(cyclopropylmethyl)-2-oxo-ethyl]-4-methoxy-1H-indole-2-carboxamide], the concentration for a half-maximal effect (EC50) was under 22 µM.

As for `CCNC(C#N)[C@H](C[C@@H]1CCNC1=O)NC(=O)[C@H](CC(C)C)NC(=O)c1cc2c(OC)cccc2[nH]1` (stereo partly drawn) [Compound 511, N-[(1S)-1-[[(1S)-2-cyano-2-(ethylamino)-1-[[(3S)-2-oxopyrrolidin-3-yl]methyl]ethyl]carbamoyl]-3-methyl-butyl]-4-methoxy-1H-indole-2-carboxamide], the 50% effective concentration (EC50) was under 22 µM.

Regarding `COc1cccc2[nH]c(C(=O)N3C[C@H](SC)C[C@H]3C(=O)N[C@H](C#N)C[C@@H]3CCNC3=O)cc12` [Compound 551], the EC50 is 2 to 10 µM.

As to `N#C[C@H](C[C@@H]1CCCNC1=O)NC(=O)[C@H](CC1CC1)NC(=O)c1cc2ccc(Cl)cc2[nH]1` [Compound 635, 6-Chloro-N-[(1S)-2-[[(1S)-1-cyano-2-[(3S)-2-oxo-3-piperidyl]ethyl]amino]-1-(cyclopropylmethyl)-2-oxo-ethyl]-1H-indole-2-carboxamide], the EC50 was under 22 µM.

As to `N#C[C@H](C[C@@H]1CCCNC1=O)NC(=O)[C@H](CC1CC1)NC(=O)c1nc2c(Cl)ccc(Cl)c2[nH]1` [Compound 637, 4,7-dichloro-N-[(1S)-2-[[(1S)-1-cyano-2-[(3S)-2-oxo-3-piperidyl]ethyl]amino]-1-(cyclopropylmethyl)-2-oxo-ethyl]-1H-benzimidazole-2-carboxamide], the concentration for a half-maximal effect (EC50) was under 22 µM.

Turning to `N#C[C@H](C[C@@H]1CCNC1=O)NC(=O)[C@H](CC1CC1)NC(=O)c1cc2c([nH]1)CCCC2` [Compound 711], the half-maximal effective concentration (EC50) is under 22 µM.

Regarding `N#C[C@H](C[C@@H]1CCCNC1=O)NC(=O)[C@H](CC1CC1)NC(=O)c1cc2c(Cl)nccc2[nH]1` [Compound 715], the EC50 was under 22 µM.

For `N#C[C@H](C[C@@H]1CCCNC1=O)NC(=O)[C@H](CC1CC1)NC(=O)c1cc2cc(Cl)ncc2[nH]1` [Compound 717], the concentration giving a half-maximal response (EC50) is under 22 µM.
